In patent US5079260A, “Method for treating inflammation and compounds and compositions suitable for use therein” (Nova Pharmaceutical Corporation, priority 1990, dated 1992):

What was measured:
[1] = system: Ear Edema Caused By Tetradecanoylphorbol Acetate; test: Inhibition of Ear Edema Caused by Tetradecanoylphorbol Acetate (II), Table 7; assay type: in vivo, CF-1 Mice; settings: i.p., 3 h
Method: Inhibition of Ear Edema Caused by Tetradecanoylphorbol Acetate (II)
CF-1 Mice, 25-30 g body weight, six animals per group were used. Test compounds were administered intraperitoneally or topically as follows. For intraperitoneal administration, the test compound was dissolved in dimethyl sulfoxide or 0.5% methylcellulose and 100 microliters was injected 30 minutes prior to irritant (100 mg/kg, i.p.). […] A solution of the irritant, tetradecanoylphorbol acetate, 200 μg/mL, was added to the surface of the ear, 5 μL to the upper surface and 5 μL to the lower surface. After three hours, the thickness of the ear was measured to 0.01 mm by a micrometer with loose drag, positioned at the lateral-most edge of the mid-point of the pinna. Data were calculated as the inhibition of increased ear thickness compared to control animals receiving only the irritant.

[2] = system: Ear Edema Caused by Xylene; test: Inhibition of Ear Edema Caused by Xylene (II), Table 9; assay type: in vivo, CF-1 mice; settings: i.p., 2 h
Method: Inhibition of Ear Edema Caused by Xylene (II)
(§1) CF-1 mice, 25-30 g body weight, six animals per group, were used. The requisite amount of the test compound was dissolved is dimethyl sulfoxide or 0.5% methylcellulose and 100 μL of the solution was injected intraperitoneally 30 minutes prior to the administration the irritant. The irritant xylene was applied to the surface of the ear, 20 μL to the upper surface and 20 μL to the lower surface, After two hours, the thickness of the ear was measured to 0.01 mm by a micrometer with the loose drag positioned at the lateral-most edge of the mid-point of the pinna. Data were calculated as the percent inhibition by the test compound of increased ear thickness compared to control animals receiving only the irritant.

[3] = system: Ear Edema Caused by Arachidonic Acid; test: Inhibition of Ear Edema Caused by Arachidonic Acid (II), Table 8; assay type: in vivo, CF-1 mice; settings: i.p., sixty minutes
Method: Inhibition of Ear Edema Caused by Arachidonic Acid (II)
as §1, with “of 100 mg/kg of arachidponic acid. A solution of this irritant, b 100 mg/mL in ethanol,” for “the irritant. The irritant xylene”, “5” for “20”, “surface.” for “surface,”, “sixty minutes,” for “two hours,”, “inhibityion” for “inhibition”, “recieveing” for “receiving”

[4] = system: Ear Edema Caused by Oxazolone; test: Inhibition of Ear Edema Caused by Oxazolone (II), Table 10; assay type: in vivo, CF-1 mice; settings: i.p., 24 h
Method: Inhibition of Ear Edema Caused by Oxazolone (II)
CF-1 mice, 25-30 g body weight, five to six animals per group were used. The mice were sensitized to the irritant two weeks prior to the test by dribbling 100 μL of a 3% solution of oxazolone in acetone onto the abdominal skin of the animal. Test compounds were administered intraperitoneally as follows. […] The irritant, 3% oxazolone in acetone, was added to the surface of the ear, 5 μL added to the upper surface and 5 μL added to the lower surface. After twenty four hours, the thickness of the ear was measured to 0.01 mm by a micrometer with loose drag, positioned at the lateral-most edge of the mid-point of the pinna. Data were calculated as the inhibition of increased ear thickness compared to control animals' receiving only the irritant.

[5] = system: Reverse Passive Artus Reaction; test: Reverse Passive Artus Reaction (II), Table 11; assay type: in vivo, Male CD rats; settings: inhibition of blueing; i.p., 100 mg/kg
Method: Reverse Passive Artus Reaction (II) Male CD rats weighing between 200 and 250 g were used. […] The animals were anesthetized inhalationally with isoflurane and then injected through the penile vein with 1 mL of a solution of 2.5 mg of Evan's blue dye and 5.0 mg of human serum albumin in 1 mL of saline. This treatment was followed immediately by intracutaneous injections of 0.03 mL of anti-human albumin diluted to contain 3.65 mg of antibody at 3 sites along the midline back. Anesthesia was terminated and after three hours, the animals were sacrificed. The skin was removed and the blue stained areas cut out. The skin patches were soaked overnight in stoppered tubes containing 1 mL of 1 N potassium hydroxide at 37° C. Then 9 mL of a mixture of five parts of a 0.6 N phosphoric acid and thirteen parts of acetone were added to the tubes. The tube contents were agitated and centrifuged, and the absorbance measured at 620 nm. The data were calculated as inhibition of blueing by test compound compared to control animals receiving only antigen and antibody.

SMILES	% Inhibition Intraperitoneal ([1]; 10 mg/kg) [%]	% Inhibition Intraperitoneal ([1]; 30 mg/kg) [%]	% Inhibition Intraperitoneal ([1]; 100 mg/kg) [%]	% Inhibition ([2]; 10 mg/kg) [%]	% Inhibition ([2]; 30 mg/kg) [%]	% Inhibition ([2]; 100 mg/kg) [%]	% Inhibition Intraperitoneal ([3]; 10 mg/kg) [%]	% Inhibition Intraperitoneal ([3]; 30 mg/kg) [%]	% Inhibition Intraperitoneal ([3]; 100 mg/kg) [%]	% Inhibition Intraperitoneal ([4]; 10 mg/kg) [%]	% Inhibition Intraperitoneal ([4]; 30 mg/kg) [%]	% Inhibition Intraperitoneal ([4]; 100 mg/kg) [%]	% Inhibition Intraperitoneal [5] [%]
Cc1cccc2c1-c1ccccc1C2COC(=O)N[C@@H](CC(C)C)C(=O)O (stereo partly drawn) [NPC 15325, N-{[9H-(4-Methylfluoren-9-yl)methoxy]carbonyl}-L-leucine]	36	11	82	16	25	78	52	63	100	22	24	49	–
COC(=O)[C@H](CC(C)C)NC(=O)OCC1c2ccccc2-c2ccccc21 [NPC 15326, N-[(9H-Fluoren-9-ylmethoxy)carbonyl]-L-leucine methyl ester]	–	–	–	–	–	–	–	–	–	–	–	–	19
CC(C)CC(CO)NC(=O)OCC1c2ccccc2-c2ccccc21 (stereo not drawn) [NPC 15427, 2-{N-[(9H-Fluoren-9-ylmethoxy)carbonyl]amino}-4-methylpentanol]	–	–	–	–	–	–	–	–	–	–	–	–	14
CC(C)C[C@H](NC(=O)OCC1c2ccccc2-c2ccccc21)C(=O)OCC(O)CO (stereo partly drawn) [NPC 15430]	–	–	–	–	–	–	–	–	–	–	–	–	48
CC(C)C[C@H](NC(=O)CCC1c2ccccc2-c2ccccc21)C(=O)O [NPC 15476, N-[3-(9H-Fluoren-9-yl)propionyl]-L-leucine]	–	–	64	–	–	–	–	–	–	0	5	43	56
COc1ccc2c(c1)C(COC(=O)N[C@@H](CC(C)C)C(=O)O)c1ccccc1-2 (stereo partly drawn) [NPC 15489, N-[(2-Methoxyfluoren-9-ylmethoxy)carbonyl]-L-leucine]	–	–	–	–	–	–	–	–	–	–	–	–	64
CCCC[C@H](NC(=O)CCC1c2ccccc2-c2ccccc21)C(=O)O [NPC 15894, N-[3-(9H-Fluoren-9-yl)propionyl]-L-norleucine, quarter hydrate]	11	0	68	0	0	34	22	40	60	29	14	35	–
O=C(CCC1c2ccccc2-c2ccccc21)N[C@@H](CCc1ccccc1)C(=O)O [NPC 15895, N-[3-(9H-Fluoren-9-yl)propionyl]-L-Homophenylalanine, quarter hydrate]	68	71	67	0	0	51	14	26	52	4	12	71	–
O=C(CCC1c2ccccc2-c2ccccc21)N[C@@H](Cc1ccccc1)C(=O)O [NPC 15896, N-[3-(9H-Fluoren-9-yl)propionyl]-L-Phenylalanine]	0	0	84	28	24	21	16	24	72	–	–	–	–
Cc1cccc2c1-c1ccccc1C2COC(=O)N[C@H](C(=O)O)C(C)(C)C (stereo partly drawn) [NPC 15904, N-{[9H-(4-Methylfluoren-9-yl)methoxy]carbonyl}-L-tert-leucine]	16	0	43	0	10	68	19	54	79	21	54	79	–
CCCC[C@H](NC(=O)OCC1c2ccccc2-c2cccc(C)c21)C(=O)O (stereo partly drawn) [NPC 15951, N-{[9H-(1-Methylfluoren-9-yl)methoxy]carbonyl}-L-norleucine]	41	39	70	40	62	62	11	18	56	33	23	49	–
Cc1cccc2c1C(COC(=O)N[C@H](C(=O)O)C(C)(C)C)c1ccccc1-2 (stereo partly drawn) [NPC 15952, N-{[9H-(1-Methylfluoren-9-yl)methoxy]carbonyl}-L-tert-leucine]	27	75	67	29	39	43	43	47	50	21	24	72	–
